Like-named read-outs stand apart in the source and are kept apart here.
What was measured:
[1] = Tissue distribution in Swiss nu/nu SSCUP mice bearing Dau; assay type: in vivo, human; settings: mouse, iv, 3 umol/animal
Method: The study of the tissue distribution of the ^125 I labelled compounds was performed in mice bearing grafted melanomas (cf. autoradiograms above). […] The animals are sacrificed at different time intervals of 1 to 24 hours after the injection. The blood is collected and the principal organs are excised. Aliquots are weighed and the radioactivity of the samples is measured in a […] 1191 counter (analytic tracer). The counting yield for iodine 125 is 60%. The results are expressed: as a percentage of the injected dose bound per g of tissue (% ID/g); in the form of the ratios [formula] This ratio reflects more precisely the selectivity of a molecule for an organ (tables 2, 4, 6, 8, 10 and 12).

[2] = tested on: B16 murine melanoma; assay: Autoradiograms, C57 BL6 mice bearing B16; assay type: in vivo, mouse
Method: (§1) The autoradiograms are carried out in mice bearing grafted melanomas:
a. C57 BL6 bearing the B16 murine melanoma.
(§2) The animals bearing grafted tumors receive the labelled compounds in the form of the hydrochloride in saline solution (3.7 to 5×10^5 Bq/animal) in a caudal vein. At different time intervals after the administration of the compounds (from 15 minutes to 24 hours) the mice are anesthetized with ether and plunged into liquid nitrogen.
(§3) 30 μm sections, parallel to a sagittal plane, are prepared in a freezing microtome (TS 260, SLEE) according to the protocol described by Ullberg.

[3] = tested on: 6 weeks old OF 1 male mice; assay: LD50 determination, i.v. (Karber and Behrens); settings: mouse, in vivo, iv
Source text: (§4) The determination of the LD50 is made in the mouse after i.v. injection of the molecules according to the methodology described by Karber and Behrens.
(§5) 6 weeks old OF 1 male mice

[4] = LD50 determination, i.v. (Karber and Behrens); settings: mouse, in vivo, iv
Source text: as §4, §5

[5] = tested on: B16 melanoma; assay: Scintillation imaging, C57 BL6 mice bearing B16; assay type: in vivo, mouse; settings: 3 to 17 h after injection
Source text: The mice bearing grafted tumors are anesthetized by the i.p. injection of sodium pentobarbital 1/5 and immobilized under a scintillation camera (Gammatome II, CGR) equipped with a pinhole 3-360 collimator, sensitivity 3.2 10^-4.
C57 BL6 bearing B16 melanomas at different stages of development.
The scanning observations have also been carried out after the injection of B into the following mice:
C57 BL6 bearing the B16 melanoma

[6] = tested on: Beu melanic human melanoma; assay: Autoradiograms, nu/nu SSCUP nude mice bearing Beu; assay type: in vivo
Method: as §1
b. nu/nu SSCUP nudes bearing heterotransplants of melanic (Beu) or amelanic (Dau) human melanomas).
as §2, §3

[7] = intestine, read-out: intestine % ID/g
[8] = kidney, read-out: kidney % ID/g
[9] = muscle, read-out: muscle % ID/g
[10] = pancreas, read-out: pancreas % ID/g
[11] = plasma, read-out: plasma % ID/g
[12] = spleen, read-out: spleen % ID/g
[13] = stomach, read-out: stomach % ID/g
[14] = submaxillary glands, read-out: submaxillary glands % ID/g

CCNCCNC(=O)c1ccc(I)cc1 [Derivative B, N-(2-ethylaminoethyl) 4-iodo benzamide]
tissue uptake at 1 h ([1]; blood, read-out: blood % ID/g): 0.89 %ID/g
tissue uptake at 2 h ([1]; blood, read-out: blood % ID/g): 0.93 %ID/g
tissue uptake at 4 h ([1]; blood, read-out: blood % ID/g): 0.3 %ID/g
tissue uptake at 6 h ([1]; blood, read-out: blood % ID/g): 0.53 %ID/g
tissue uptake at 24 h ([1]; blood, read-out: blood % ID/g): 0.009 %ID/g
tissue uptake at 8 h ([1]; blood, read-out: blood % ID/g): 0.11 %ID/g
tissue uptake at 12 h ([1]; blood, read-out: blood % ID/g): 0.015 %ID/g
tissue uptake at 1 h ([1]; brain, read-out: brain % ID/g): 1.28 %ID/g
tissue uptake at 2 h ([1]; brain, read-out: brain % ID/g): 1.25 %ID/g
tissue uptake at 4 h ([1]; brain, read-out: brain % ID/g): 0.63 %ID/g
tissue uptake at 6 h ([1]; brain, read-out: brain % ID/g): 0.22 %ID/g
tissue uptake at 24 h ([1]; brain, read-out: brain % ID/g): 0.002 %ID/g
tissue uptake at 8 h ([1]; brain, read-out: brain % ID/g): 0.14 %ID/g
tissue uptake at 12 h ([1]; brain, read-out: brain % ID/g): 0.01 %ID/g
tissue uptake at 1 h ([1]; eye, read-out: eye % ID/g): 0.51 %ID/g
tissue uptake at 2 h ([1]; eye, read-out: eye % ID/g): 0.5 %ID/g
tissue uptake at 4 h ([1]; eye, read-out: eye % ID/g): 0.21 %ID/g
tissue uptake at 6 h ([1]; eye, read-out: eye % ID/g): 0.19 %ID/g
tissue uptake at 24 h ([1]; eye, read-out: eye % ID/g): 0.008 %ID/g
tissue uptake at 8 h ([1]; eye, read-out: eye % ID/g): 0.06 %ID/g
tissue uptake at 12 h ([1]; eye, read-out: eye % ID/g): 0.01 %ID/g
tissue uptake at 1 h [1, 7]: 3.1 %ID/g
tissue uptake at 2 h [1, 7]: 2.57 %ID/g
tissue uptake at 4 h [1, 7]: 1.19 %ID/g
tissue uptake at 6 h [1, 7]: 1.05 %ID/g
tissue uptake at 8 h [1, 7]: 0.36 %ID/g
tissue uptake at 12 h [1, 7]: 0.05 %ID/g
tissue uptake at 24 h [1, 7]: 0.01 %ID/g
tissue uptake at 1 h [1, 8]: 8.15 %ID/g
tissue uptake at 2 h [1, 8]: 6.17 %ID/g
tissue uptake at 4 h [1, 8]: 2.51 %ID/g
tissue uptake at 6 h [1, 8]: 1.07 %ID/g
tissue uptake at 24 h [1, 8]: 0.04 %ID/g
tissue uptake at 8 h [1, 8]: 0.42 %ID/g
tissue uptake at 12 h [1, 8]: 0.08 %ID/g
tissue uptake at 1 h ([1]; liver, read-out: liver % ID/g): 4.95 %ID/g
tissue uptake at 2 h ([1]; liver, read-out: liver % ID/g): 3.16 %ID/g
tissue uptake at 4 h ([1]; liver, read-out: liver % ID/g): 1.52 %ID/g
tissue uptake at 6 h ([1]; liver, read-out: liver % ID/g): 0.74 %ID/g
tissue uptake at 24 h ([1]; liver, read-out: liver % ID/g): 0.19 %ID/g
tissue uptake at 8 h ([1]; liver, read-out: liver % ID/g): 0.63 %ID/g
tissue uptake at 12 h ([1]; liver, read-out: liver % ID/g): 0.2 %ID/g
tissue uptake at 1 h ([1]; lungs, read-out: lungs % ID/g): 5.35 %ID/g
tissue uptake at 2 h ([1]; lungs, read-out: lungs % ID/g): 5.56 %ID/g
tissue uptake at 4 h ([1]; lungs, read-out: lungs % ID/g): 2.63 %ID/g
tissue uptake at 6 h ([1]; lungs, read-out: lungs % ID/g): 0.93 %ID/g
tissue uptake at 8 h ([1]; lungs, read-out: lungs % ID/g): 0.43 %ID/g
tissue uptake at 12 h ([1]; lungs, read-out: lungs % ID/g): 0.04 %ID/g
tissue uptake at 24 h ([1]; lungs, read-out: lungs % ID/g): 0.02 %ID/g
tissue uptake at 1 h [1, 9]: 1.04 %ID/g
tissue uptake at 2 h [1, 9]: 6.86 %ID/g
tissue uptake at 4 h [1, 9]: 0.41 %ID/g
tissue uptake at 6 h [1, 9]: 0.12 %ID/g
tissue uptake at 24 h [1, 9]: 0.002 %ID/g
tissue uptake at 8 h [1, 9]: 0.07 %ID/g
tissue uptake at 12 h [1, 9]: 0.008 %ID/g
tissue uptake at 1 h [1, 10]: 2.86 %ID/g
tissue uptake at 2 h [1, 10]: 2.13 %ID/g
tissue uptake at 4 h [1, 10]: 0.83 %ID/g
tissue uptake at 6 h [1, 10]: 0.4 %ID/g
tissue uptake at 8 h [1, 10]: 0.14 %ID/g
tissue uptake at 12 h [1, 10]: 0.08 %ID/g
tissue uptake at 24 h [1, 10]: 0.01 %ID/g
tissue uptake at 1 h [1, 11]: 0.71 %ID/g
tissue uptake at 2 h [1, 11]: 0.85 %ID/g
tissue uptake at 4 h [1, 11]: 0.28 %ID/g
tissue uptake at 6 h [1, 11]: 0.61 %ID/g
tissue uptake at 24 h [1, 11]: 0.009 %ID/g
tissue uptake at 8 h [1, 11]: 0.13 %ID/g
tissue uptake at 12 h [1, 11]: 0.02 %ID/g
tissue uptake at 1 h [1, 12]: 2.54 %ID/g
tissue uptake at 2 h [1, 12]: 2.02 %ID/g
tissue uptake at 4 h [1, 12]: 0.62 %ID/g
tissue uptake at 6 h [1, 12]: 0.33 %ID/g
tissue uptake at 8 h [1, 12]: 0.14 %ID/g
tissue uptake at 12 h [1, 12]: 0.05 %ID/g
tissue uptake at 24 h [1, 12]: 0.09 %ID/g
tissue uptake at 1 h [1, 13]: 2.38 %ID/g
tissue uptake at 2 h [1, 13]: 3.03 %ID/g
tissue uptake at 4 h [1, 13]: 1.23 %ID/g
tissue uptake at 6 h [1, 13]: 2 ± 0.253 %ID/g
tissue uptake at 8 h [1, 13]: 0.58 %ID/g
tissue uptake at 12 h [1, 13]: 0.1 %ID/g
tissue uptake at 24 h [1, 13]: 0.02 %ID/g
tissue uptake at 1 h [1, 14]: 4.28 %ID/g
tissue uptake at 2 h [1, 14]: 4.14 %ID/g
tissue uptake at 4 h [1, 14]: 1.68 %ID/g
tissue uptake at 6 h [1, 14]: 2.74 %ID/g
tissue uptake at 8 h [1, 14]: 0.39 %ID/g
tissue uptake at 12 h [1, 14]: 0.04 %ID/g
tissue uptake at 24 h [1, 14]: 0.02 %ID/g
tissue uptake at 1 h ([1]; tumor, read-out: tumor % ID/g): 1.19 %ID/g
tissue uptake at 2 h ([1]; tumor, read-out: tumor % ID/g): 1.27 %ID/g
tissue uptake at 4 h ([1]; tumor, read-out: tumor % ID/g): 0.93 %ID/g
tissue uptake at 6 h ([1]; tumor, read-out: tumor % ID/g): 0.34 %ID/g
tissue uptake at 24 h ([1]; tumor, read-out: tumor % ID/g): 0.007 %ID/g
tissue uptake at 8 h ([1]; tumor, read-out: tumor % ID/g): 0.12 %ID/g
tissue uptake at 12 h ([1]; tumor, read-out: tumor % ID/g): 0.02 %ID/g
darkening of the film at the tumor ([2]; 1 h after injection): qualitatively as great as after the injection of A
tumoral radioactive concentration (autoradiogram) ([2]; 4 h and particularly 6 h, compared with A): more intense tumoral radioactive concentration
tumor visibility on autoradiogram ([2]; 24 h after i.v.): still visible
radioactivity remaining in the organism ([2]; 24 h after injection): no radioactivity remains in the organism
LD 0 [3]: 150 mg/kg
LD 100 [3]: 200 mg/kg
LD50 [4]: 175 mg/kg
tumoral definition [5]: very good tumoral definition
darkening along the circumference of the tumor ([6]; 6 h after injection): more pronounced darkening along the circumference of the tumor
time up to which tumor is visible on autoradiogram ([6]; after injection): up to 6 h
